Assay [1] relates to recombinant GLUT4 (myc-GLUT4-ECFP) in C2C12 myotube cells. The assay is described as follows: Measurement of GLUT4 membrane-translocation activity by anti-myc antibody uptake, western blot analysis. The class given is cell-based, mouse. To be noted: insulin 100 nM, 60 minutes. The procedure: The C2C12 myotube cells expressing a recombinant GLUT4, prepared according to Preparation Example 3, were stimulated by insulin with a final concentration of 100 nM for 60 minutes. After 30 minutes from the start of insulin stimulation, an anti-myc-monoclonal antibody with a final concentration of 4 μg/ml was supplemented in a culture medium. After insulin stimulation, the cells were washed 5 times with PBS (−) to remove anti-myc antibodies that were present on the cell membrane, and subsequently, a cell extract was prepared using Laemmli's buffer. The cell extract was used for 12.5% SDS-PAGE, and western blot analysis using an anti-mice-IgG antibody bound to horseradish peroxidase was carried out. Moreover, detection was carried out using a west super femto detection kit (Pierce Biotechnology Inc.).
Background: In western blotting, separated proteins are transferred to a membrane and probed.

Assay [2] concerns myc-GLUT4-ECFP in C2C12 myotube cells. The assay is described as follows: Immunostaining of myc on the membrane, confocal microscope (membrane translocation of GLUT4). The class given is cell-based, mouse. Conditions: insulin 100 nM, 60 minutes; FIG. 13. On the procedure:
The C2C12 myotube cells (differentiation-type culture myotube cell) expressing a myc-GLUT4-ECFP, prepared according to Preparation Example 3, were stimulated by insulin with a final concentration of 100 nM for 60 minutes. After being washed 3 times with PBS (−), they were fixed by being shaken in PBS (−) supplemented with 2% paraformaldehyde for 15 minutes. After being washed 3 times×10 minutes with PBS (−), they were blocked by being shaken in PBS (−) supplemented with 5% bovine serum for 1 hour. Next, they were shaken for 1 hour using an anti-myc-monoclonal antibody diluted 200-fold with PBS (−) supplemented with 1% bovine serum albumin as a primary antibody. After being washed 5 times×10 minutes with PBS (−), they were shaken for 1 hour using an anti-mice-IgG antibody (The Jackson Laboratory) bound to rhodamine that was diluted 2000-fold with PBS (−) supplemented with 1% bovine serum albumin as a secondary antibody. Subsequently, the glass cover was removed, and they were placed on a glass slide on which Vecta Shield was dropped, and rhodamine and expression of ECFP were observed under a confocal microscope.

Turning to insulin, in assay [1] (FIG. 14A), the “amount of the anti-myc antibody incorporated into the cells” value was “significantly increased”. Also, the “GLUT4 activity increase by insulin (quantified western blot)” value in assay [1] (anti-myc antibody 4 μg/ml, FIG. 14C) is listed as “approximately 3 fold”. In assay [2], the “membrane translocation of GLUT4 (myc on the membrane)” value is given as “GLUT4 was translocated on the membrane”.
